Reference: PMC6438679, “New lupeol esters as active substances in the treatment of skin damage” (PLoS ONE, 2019)
Counter-ions that a name gives are not always drawn.

How the values were obtained:
[1] = test system: Reconstructed Human Epidermis (RHE) EpiDerm; test: In vitro Skin Irritation Test on Reconstructed Human Epidermis (MTT viability); conditions: for increase of cell concentration in comparison to control samples: RHE model, proliferation
Procedure: A Skin Irritation Test was prepared according to SOP (Standard Operation Protocol) of In vitro Skin Irritation Test (ECVAM): Human Skin Model, EpiDerm-200, Version: 7.0, 30th Oct 2007.
Standard EpiDermFT kit (MatTek Corporation) consisted of 24 tissues. Costar Snapwell single well tissue culture plate inserts had the surface area of about 1.0 cm^2 and the diameter of about 1.2 cm. Moreover inserts were equipped with pores (size 0.4 μm diameter). Before test, all tissues were visually inspected if there are any physical imperfections. […] The culture medium was fed through a microporous membrane. The tissue contained 8–12 cell layers plus stratum corneum (basal, spinous, and granular layers) [35].
In vitro skin irritation test was prepared according to the procedure described by Kandarova et al. [35]. On the first day, tissues were topically exposed to the oil solutions of tested triterpenes. White crystals of each compound were dissolved in caprylic and capric triglyceride (Crodamol GTCC, Croda). The esters concentration in the solutions was 0.5% (m/m). Three tissues were used for each tested substance, as well as for the positive and negative control. Positive control solution consisted of 5% aq. solution of SDS (Sodium Dodecyl Sulfate, Mattek), and a negative control solution consisted of Caprylic and Capric Triglycerides (Crodamol GTCC, Croda). Chemical exposure time was 60 min, during which, for 35 min, the tissues were kept in an incubator at 37°C (chamber Heraeus, Kendro). The test substances were then removed from the tissue surface by an extensive washing procedure using DPBS (phosphate-buffered saline, pH = 7.4, Mattek). The tissue inserts were blotted and transferred to fresh medium.
After 24 hours of incubation, the medium was exchanged and the tissues were incubated for an additional 18 hours. After 42 hours of incubation time, the tissues were transferred into a yellow solution of MTT (3-(4,5-dimethylthiazol-2-yl)-2,5-diphenyltetrazolium bromide, Mattek) and incubated for a further 3 hours. The resultant purple-blue formazan salt, formed mainly by mitochondrial metabolism, was extracted after 2 hours with isopropanol, pure (Mattek). The optical density (OD570) of the extracted formazan solution was determined using a spectrophotometer (Biotek, PowerWave XS). Cells viability assay was calculated referring to the negative control tissues. A substance is classified as an irritant if the tissue viability relative to the negative control treated tissues is reduced below 50%.

| Compound | melting point [°C] | increase of cell concentration in comparison to control samples [1] | Viability [%] / SD ([1]; Epiderm, 0.5% (m/m) in caprylic and capric triglyceride, 60 min exposure, 42 h incubation, MTT, relative to negative control, n = 3) [%] |
| --- | --- | --- | --- |
| C=C(C)C1CCC2(C)CCC3(C)C(CCC4C5(C)CCC(OC(=O)CCC(=O)O)C(C)(C)C5CCC43C)C12 (stereo not drawn) (as salt: succinate) [Compound 5, Lupeol succinate] | 221 to 223 |  |  |
| C=C(C)C1CCC2(C)CCC3(C)C(CCC4C5(C)CCC(OC(C)=O)C(C)(C)C5CCC43C)C12 (stereo not drawn) [Compound 2, Lupeol acetate] | 216 to 219 | more than 30% |  |
| C=C(C)C1CCC2(C)CCC3(C)C(CCC4C5(C)CCC(OC(=O)CC)C(C)(C)C5CCC43C)C12 (stereo not drawn) [Compound 3, Lupeol propionate] | 220 to 222 | more than 30% |  |
| C=C(C)[C@@H]1CC[C@]2(C)CC[C@]3(C)[C@H](CC[C@@H]4[C@@]5(C)CC[C@H](OC(=O)c6ccncc6)C(C)(C)[C@@H]5CC[C@]43C)[C@@H]12 [Compound 4, Lupeol isonicotinate] | 179 to 183 | more than 30% |  |
| C=C(C)[C@@H]1CC[C@]2(C)CC[C@]3(C)[C@H](CC[C@@H]4[C@@]5(C)CC[C@H](OC(=O)c6ccccc6OC(C)=O)C(C)(C)[C@@H]5CC[C@]43C)[C@@H]12 [Compound 6, Lupeol acetylsalicylate] | 226 to 229 |  |  |
| CCCCCCCCCCCCOS(=O)(=O)[O-].[Na+] [PC, Sodium Dodecyl Sulfate, reference compound] |  |  | 28.1 |
